Test results reported in patent publication US20160151369A1, “SUBSTITUTED 3-PHENYLPROPYLAMINE DERIVATIVES FOR THE TREATMENT OF OPHTHALMIC DISEASES AND DISORDERS” (ACUCELA INC., priority 2013, published 2016).
Where two headings read alike, the source gives them in different places.

Experiments:
[1] = test system: retinal isomerase activity (regeneration of 11-cis-retinal); assay: Comparative in vivo murine isomerase assay, dose response (compound A vs compound D); set-up: species or system BALB/c mice
Experimental: (§1) All test compounds were stored at room temperature, dessicated.
On the day prior to dose administration compound A and compound D were weighed into new empty glass vials. The compounds were dissolved in di-water at the concentration of 0.833 mg/mL compound A and 0.892 mg/mL compound D, serially diluted into various concentrations, and stored overnight at 4 OC.
56 Male BALB/c mice (Charles River Laboratories) were used for this study. The mice were approximately 8 weeks at the initiation of dosing with an average body weight of 24 grams.
The day prior to dose administration 56 BALB/c mice were placed into a dark room and dark adapted for a minimum of 12 hours prior to dose administration. The mice were maintained in the dark for the duration of the study.
Each animal was removed from its cage and dosed accordingly to the study design in Table 4 (see below). Each animal was administered 0.1 mL of the appropriate compound or vehicle via oral gavage using a 1 mL syringe fitted with a 23 gauge oral gavage needle. Two hours following dose administration, animals were removed from the dark and exposed to 5000 Lux white light for 10 minutes to photobleach their eyes.
Following the completion of the photobleach the animals were returned to the dark for 2 hours to allow for the regeneration of 11-cis-retinal in the eyes. Two hours after photobleaching each animal was euthanized with carbon dioxide followed by cervical dislocation, in the dark under red light. The light control group was euthanized immediately following photobleaching. Immediately following the cervical dislocation both eyes of each animal were removed and transferred into separate tubes, flash frozen in liquid nitrogen and stored in the dark at −80° C. until processing and analysis.
(§2) All sample processing procedures were performed in the dark under red light.
Extracted samples were analyzed using an Agilent 1100 HPLC system according to the procedure outlined in Table 6 (see below)
(§3) HPLC analysis of the eyes measures the peak area units of the 110 cis-Ral-Oxime_syn. Signal.
(§4) Data analysis % inhibition (drug vs. recovery control). % control (drug vs. light control), and One-way ANOVA (followed by Tukey's Multiple Comparison) were performed using peak area units and performed by Prism software. Data are represented as mean and standard deviation.

[2] = test system: regeneration of 11-cis-retinal (isomerase); assay: Single dose time course in the in vivo isomerase assay at 0.3 mg/kg (compound A vs compound D); details: BALB/c mice, single oral dose 0.3 mg/kg; for inhibition at 0.3 mg/kg: Mus musculus, read-out: Percent Inhibition, 0.3 mg/kg, Avg. % Inhibition
Experimental: as §1
On the day prior to dose administration 3-amino-1-(3-((tetrahydro-2H-pyran-4-yl)methoxy)phenyl)propan-1-ol (compound A) and 3-amino-1-(3-((tetrahydro-2H-pyran- 2-yl)methoxy)phenyl)propan-1-ol (compound D) were weighed into new empty glass vials. The compounds were dissolved in di-water at the concentration of 0.068 mg/mL and stored overnight at 4° C.
52 Male BALB/c mice (Charles River Laboratories) were used for this study. The mice were approximately 8 weeks at the initiation of dosing with an average body weight of 23 grams.
The day prior to dose administration 52 BALB/c mice were placed into a dark room and dark adapted for a minimum of 12 hours prior to dose administration. The mice were maintained in the dark for the duration of the study.
Each animal was removed from its cage and dosed accordingly to the study design in Table 10 (see below). Each animal was administered 0.1 mL of the appropriate test article or vehicle orally using a 1 mL syringe fitted with a 23 gauge oral gavage needle. At 2, 4, 6, 8, 16 or 24 hours following dose administration, animals were removed from the dark and exposed to 5000 Lux white light for 10 minutes to photobleach their eyes. Following the completion of the photobleach the animals were returned to the dark for 2 hours to allow for the regeneration of 11-cis-retinal in the eyes. Two hours after photobleaching each animal was euthanized with carbon dioxide followed by cervical dislocation, in the dark under red light. The light control group was euthanized immediately following photobleaching. Immediately following the cervical dislocation both eyes of each animal were removed and transferred into separate tubes, flash frozen in liquid nitrogen and stored in the dark at −80° C. until processing and analysis.
as §2
Extracted samples were analyzed using an Agilent 1100 HPLC system according to the procedure outlined in Table 12 (see below)
as §3, §4

[3] = test system: isomerase (recovery of 11-cis-retinal after bleaching); assay: In vivo murine isomerase assay (Table 3); details: Mus musculus, po, 4 h, mice, Dose 1 mg/kg
Experimental: The capability of compounds described herein to inhibit isomerase was determined by an in vivo murine isomerase assay. […] The recovery of 11-cis-retinal after bleaching can be used to estimate the activity of isomerase in vivo. Delayed recovery, as represented by lower 11-cis-retinal oxime levels, indicates inhibition of isomerization reaction.
Mice were gavaged with the test compound. […] The mice were allowed to recover 2 hours in the dark. The animals were then sacrificed by carbon dioxide inhalation. Retinoids were extracted from the eye and the regeneration of 11-cis-retinal was assessed at various time intervals.
After the mice were sacrificed, the eyes were immediately removed and placed in liquid nitrogen for storage.
The eyes were placed in 500 μL of bis-tris propane buffer (10 mM, pH˜7.3) and 20 μL of 0.8M hydroxile amine (pH˜7.3). The eyes were cut up into small pieces with small iris scissors and then thoroughly homogenized at 30000 rpm with a mechanical homogenizer (Polytron PT 1300 D) in the tube until no visible tissue remained. 500 μL of methanol and 500 μL of heptane were added to each tube. The tubes were attached to a vortexer so that the contents were mixed thoroughly for 15 minutes in room temperature. The organic phase was separated from the aqueous phase by centrifugation for 10 min at 13K rpm, 4° C. 240 μL of the solution from the top layer (organic phase) was removed and transferred to clean 300 μl glass inserts in HPLC vials using glass pipette and the vials were crimped shut tightly.
The samples were analyzed on an Agilent 1100 HPLC system with normal phase column: SILICA (Beckman Coutlier, dp 5 μm, 4.6 mM×250 mM). […] Loading volume for each sample was 100 μl; detection wavelength was 360 nm. The area under the curve for 11-cis retinal oxime was calculated by Agilent Chemstation software and was recorded manually. Data processing was performed using Prizm software.
Positive control mice (no compound administered) were sacrificed fully dark-adapted and the eye retinoids analyzed. Light (bleached) control mice (no compound administered) were sacrificed and retinoids isolated and analyzed immediately after light treatment.
A time course study was performed to determine the isomerase inhibitory activity of the test compound. […] The animals were then “photo-bleached” (5000 Lux white light for 10 minutes) at 2, 4, 8, 16 and 24 hours after dosing, and returned to darkness to allow recovery of the 11-cis-retinal content of the eyes. Mice were sacrificed 2 hours after bleaching, eyes were enucleated, and retinoid content is analyzed by HPLC.
Recovery control mice (vehicle-only treated) were light-treated and left to recover for 2 hours in the dark before sacrifice and analysis. Light control mice (vehicle only treated) were sacrificed for analysis immediately after photo-bleaching.
An in vivo dose response isomerase inhibition study was performed with test compound. […] Recovery and retinoid analysis were performed as described above. Dark control mice were vehicle-only treated, sacrificed fully dark adapted without light treatment, and analyzed. Recovery control mice and light control mice were included in the study as per the initial phase.

NCCC(O)c1cccc(OCC2CCCCO2)c1 (centres unmarked) [compound D, reference compound]
dose at which 11-cis-retinal recovery was inhibited by 50% (called IC50) ([1]; BALB/c mice, single oral dose, 2 h, dose response experiment): 0.59 mg/kg
inhibition at 0.03 mg/kg ([1]; Mus musculus, po, 2 h, BALB/c mice, single oral dose 0.03 mg/kg, bleach 2 h after dose, drug vs. recovery control, read-out: Percent Inhibition at 2 Hours, Avg. % Inhibition): -5.3%
inhibition at 0.1 mg/kg ([1]; Mus musculus, po, 2 h, BALB/c mice, single oral dose 0.1 mg/kg, bleach 2 h after dose, drug vs. recovery control, read-out: Percent Inhibition at 2 Hours, Avg. % Inhibition): -23.9%
inhibition at 0.3 mg/kg ([1]; Mus musculus, po, 2 h, BALB/c mice, single oral dose 0.3 mg/kg, bleach 2 h after dose, drug vs. recovery control, read-out: Percent Inhibition at 2 Hours, Avg. % Inhibition): -2.1%
inhibition at 0.5 mg/kg ([1]; Mus musculus, po, 2 h, BALB/c mice, single oral dose 0.5 mg/kg, bleach 2 h after dose, drug vs. recovery control, read-out: Percent Inhibition at 2 Hours, Avg. % Inhibition): 41.4%
inhibition at 1 mg/kg ([1]; Mus musculus, po, 2 h, BALB/c mice, single oral dose 1 mg/kg, bleach 2 h after dose, drug vs. recovery control, read-out: Percent Inhibition at 2 Hours, Avg. % Inhibition): 70.2%
inhibition at 3 mg/kg ([1]; Mus musculus, po, 2 h, BALB/c mice, single oral dose 3 mg/kg, bleach 2 h after dose, drug vs. recovery control, read-out: Percent Inhibition at 2 Hours, Avg. % Inhibition): 100%
activity at 0.03 mg/kg ([1]; Mus musculus, BALB/c mice, single oral dose 0.03 mg/kg, bleach 2 h after dose, read-out: Percent control at 2 Hours (Avg. % Inhibition)): 105%
activity at 0.1 mg/kg ([1]; Mus musculus, BALB/c mice, single oral dose 0.1 mg/kg, bleach 2 h after dose, read-out: Percent control at 2 Hours (Avg. % Inhibition)): 124%
activity at 0.5 mg/kg ([1]; Mus musculus, BALB/c mice, single oral dose 0.5 mg/kg, bleach 2 h after dose, read-out: Percent control at 2 Hours (Avg. % Inhibition)): 58.6%
activity at 1 mg/kg ([1]; Mus musculus, BALB/c mice, single oral dose 1 mg/kg, bleach 2 h after dose, read-out: Percent control at 2 Hours (Avg. % Inhibition)): 29.8%
activity at 3 mg/kg ([1]; Mus musculus, BALB/c mice, single oral dose 3 mg/kg, bleach 2 h after dose, read-out: Percent control at 2 Hours (Avg. % Inhibition)): 0%
dose showing nearly 100% inhibition ([1]; dose response experiment, 2 h): 3.0 mg/kg
Percent Control, 0.3 mg/kg (average) ([2]; Time Point 2 Hours): 86.8%
Percent Control, 0.3 mg/kg (average) ([2]; Time Point 4 Hours): 101.8%
Percent Control, 0.3 mg/kg (average) ([2]; Time Point 6 Hours): 87.9%
Percent Control, 0.3 mg/kg (average) ([2]; Time Point 8 Hours): 94.6%
Percent Control, 0.3 mg/kg (average) ([2]; Time Point 16 Hours): 104.1%
Percent Control, 0.3 mg/kg (average) ([2]; Time Point 24 Hours): 89.5%
inhibition at 0.3 mg/kg ([2]; Time Point 2 Hours): 13.2%
inhibition at 0.3 mg/kg ([2]; Time Point 4 Hours): -1.8%
inhibition at 0.3 mg/kg ([2]; Time Point 6 Hours): 12.1%
inhibition at 0.3 mg/kg ([2]; Time Point 8 Hours): 5.4%
inhibition at 0.3 mg/kg ([2]; Time Point 16 Hours): -4.1%
inhibition at 0.3 mg/kg ([2]; Time Point 24 Hours): 10.5%
inhibition at 1 mg/kg [3]: 57%
